Results: US11214594B2, “Antimicrobial peptide having synergistic antibacterial effect with antibiotics on multidrug resistant bacteria, and use thereof” (priority 2016, dated 2022)
In brackets after ≈: the same amount, converted by molar mass. Where a SMILES comes first, the peptide text is derived from it.

How the values were obtained:
[1] = test system: S. epidermidis; test: microbe, parasite or virus in culture; type: cell-based, Staphylococcus epidermidis
Outline: (§1)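 MIC read-out = lowest peptide level with no bacterial proliferation. Strains diluted in MH medium to 2×10^6 CFU; peptide twofold serial dilutions in MH added 1:1 in microtiter wells.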

[2] = test system: P. aeruginosa; test: microbe, parasite or virus in culture; type: cell-based, Pseudomonas aeruginosa
Outline: as §1

[3] = test system: A. baumannii; test: MIC of antibiotic during combined treatment with antimicrobial peptide; type: cell-based, Acinetobacter baumannii; conditions: for Antibiotic MIC, Erythromycin / Antibiotic MIC, Linezolid / Antibiotic MIC, Vancomycin: A. baumannii
Outline: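 First, antibiotic solution is diluted with MH medium; next, the dilution is dispensed into wells containing peptide; finally, the orientation is swapped and MIC of each mixture determined.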

[4] = test system: MDRAB 12035; test: MIC of antimicrobial peptide during combined treatment with antibiotic; type: cell-based, Acinetobacter baumannii
Outline: (§2)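 Broth microdilution in MH medium; strains were diluted to 2×10^6 CFU per ml before plating. Peptide was serially diluted stepwise at 2:1 starting from its MIC, and MH-diluted antibiotic was then added to determine MIC. The reversed arrangement was also tested.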

[5] = test system: A. baumannii; test: as above; type: cell-based, Acinetobacter baumannii
Outline: as §2

[6] = test system: MDRAB 12035; test: MIC of antibiotic during combined treatment with antimicrobial peptide; type: cell-based, Acinetobacter baumannii
Outline: as §2

[7] = combined with peptide at 1 μg/ml
[8] = combined with peptide at 2 μg/ml
[9] = combined with peptide at 4 μg/ml
[10] = combined with peptide at 6 μg/ml
[11] = combined with peptide at 8 μg/ml
[12] = combined with peptide at 16 μg/ml
[13] = combined with peptide at 32 μg/ml
[14] = combined with peptide at 64 μg/ml
[15] = erythromycin 4 μg/ml (Conc./MIC 1/8)
[16] = erythromycin 8 μg/ml (Conc./MIC 1/4)
[17] = erythromycin 16 μg/ml (Conc./MIC 1/2)
[18] = erythromycin 32 μg/ml (Conc./MIC 1)
[19] = vancomycin 512 μg/ml (Conc./MIC 1/2)
[20] = vancomycin 1024 μg/ml (Conc./MIC 1)
[21] = peptide treatment concentration 1 μg/ml

CC[C@H](C)[C@H](NC(=O)[C@H](CCCCN)NC(=O)[C@H](Cc1c[nH]c2ccccc12)NC(=O)[C@@H](N)CCCNC(=N)N)C(=O)N[C@@H](Cc1ccccc1)C(=O)N[C@@H](CCCCN)C(=O)N[C@@H](CCCCN)C(=O)N[C@H](C(=O)N1CCC[C@H]1C(=O)N[C@@H](CCCCN)C(=O)N[C@@H](Cc1ccccc1)C(=O)N[C@@H](CC(C)C)C(=O)N[C@@H](Cc1c[nH]cn1)C(=O)N[C@@H](CO)C(=O)N[C@@H](Cc1c[nH]c2ccccc12)C(=O)N[C@@H](CCCCN)C(=O)N[C@@H](CCCCN)C(=O)N[C@@H](Cc1ccccc1)C(N)=O)[C@@H](C)CC [PapMA-3, RWK IFK KIP KFL HSW KKF-NH2] (H-RWKIFKKIPKFLHSWKKF-NH2; N-terminus assumed)
Minimal inhibitory concentration MIC [1]: >128 µg/mL
Minimal inhibitory concentration MIC [2]: 16 µg/mL (≈ 6.62 µM)
Synergistic effect of antibacterial activity with existing antibiotics compared with PapMA-1 ([3]; A. baumannii and MDRAB 12035): higher level than the PapMA-1 peptide
Antibiotic MIC, Erythromycin [3, 7]: 32 µg/mL
Antibiotic MIC, Linezolid [3, 7]: >128 µg/mL
Antibiotic MIC, Vancomycin [3, 7]: >128 µg/mL
Antibiotic MIC, Erythromycin [3, 8]: 16 µg/mL
Antibiotic MIC, Linezolid [3, 8]: 64 µg/mL
Antibiotic MIC, Vancomycin [3, 8]: 128 µg/mL
Antibiotic MIC, Erythromycin [3, 9]: 8 µg/mL
Antibiotic MIC, Linezolid [3, 9]: 32 µg/mL
Antibiotic MIC, Vancomycin [3, 9]: 64 µg/mL
Antibiotic MIC, Erythromycin [3, 10]: 1 µg/mL
Antibiotic MIC, Linezolid [3, 10]: 16 µg/mL
Antibiotic MIC, Vancomycin [3, 10]: 32 µg/mL
Antibiotic MIC, Erythromycin [3, 11]: 0.125 µg/mL
Antibiotic MIC, Linezolid [3, 11]: 8 µg/mL
Antibiotic MIC, Vancomycin [3, 11]: 32 µg/mL
Antibiotic MIC, Erythromycin [3, 12]: 0 µg/mL
Antibiotic MIC, Linezolid [3, 12]: 0 µg/mL
Antibiotic MIC, Vancomycin [3, 12]: 0 µg/mL
Antibiotic MIC, Erythromycin [3, 13]: 0 µg/mL
Antibiotic MIC, Linezolid [3, 13]: 0 µg/mL
Antibiotic MIC, Vancomycin [3, 13]: 0 µg/mL
Antibiotic MIC, Erythromycin [3, 14]: 0 µg/mL
Antibiotic MIC, Linezolid [3, 14]: 0 µg/mL
Antibiotic MIC, Vancomycin [3, 14]: 0 µg/mL
Peptide MIC during treatment with erythromycin [4, 15]: 4 µg/mL
Peptide MIC during treatment with erythromycin [4, 16]: 4 µg/mL
Peptide MIC during treatment with erythromycin [4, 17]: 2 µg/mL
Peptide MIC during treatment with erythromycin [4, 18]: 0 µg/mL
Peptide MIC during treatment with linezolid ([4]; linezolid 64 μg/ml (Conc./MIC 1/8)): 4 µg/mL
Peptide MIC during treatment with linezolid ([4]; linezolid 512 μg/ml (Conc./MIC 1)): 0 µg/mL
Peptide MIC during treatment with linezolid ([4]; linezolid […] (Conc./MIC 1/2)): 1 µg/mL
Peptide MIC during treatment with linezolid ([4]; linezolid […] (Conc./MIC 1/4)): 2 µg/mL
Peptide MIC during treatment with vancomycin [4, 19]: 2 µg/mL
Peptide MIC during treatment with vancomycin [4, 20]: 0.25 µg/mL
Peptide MIC during treatment with vancomycin ([4]; vancomycin […] (Conc./MIC 1/4)): 2 µg/mL
Peptide MIC during treatment with vancomycin ([4]; vancomycin […] (Conc./MIC 1/8)): 4 µg/mL
Peptide MIC during treatment with antibiotic [5, 15]: 4 µg/mL
Peptide MIC during treatment with antibiotic [5, 16]: 4 µg/mL
Peptide MIC during treatment with antibiotic [5, 17]: 2 µg/mL
Peptide MIC during treatment with antibiotic [5, 18]: 0 µg/mL
Peptide MIC during treatment with antibiotic ([5]; linezolid 32 μg/ml (Conc./MIC 1/8)): 4 µg/mL
Peptide MIC during treatment with antibiotic ([5]; linezolid 64 μg/ml (Conc./MIC 1/4)): 2 µg/mL
Peptide MIC during treatment with antibiotic ([5]; linezolid […] (Conc./MIC 1)): 0 µg/mL
Peptide MIC during treatment with antibiotic ([5]; linezolid […] (Conc./MIC 1/2)): 1 µg/mL
Peptide MIC during treatment with antibiotic [5, 19]: 0.25 µg/mL
Peptide MIC during treatment with antibiotic [5, 20]: 0 µg/mL
Peptide MIC during treatment with antibiotic ([5]; vancomycin […] (Conc./MIC 1/4)): 0.25 µg/mL
Peptide MIC during treatment with antibiotic ([5]; vancomycin […] (Conc./MIC 1/8)): 2 µg/mL
Erythromycin MIC during combined treatment with peptide [6, 21]: 32 µg/mL
Linezolid MIC during combined treatment with peptide [6, 21]: >128 µg/mL
Vancomycin MIC during combined treatment with peptide [6, 21]: >128 µg/mL
Erythromycin MIC during combined treatment with peptide ([6]; peptide treatment concentration 2 μg/ml): 16 µg/mL
